Here are results for 11 molecules from ChEMBL document CHEMBL1201862, “PubChem BioAssay data set” (2004).

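1) Cells in 96-well plates. 2) Compound, 48 h, 5 concentrations. 3) Linear interpolation between surrounding doses. 4) Unreached endpoint = highest concentration. Here, GI50 denotes the concentration required for 50% inhibition of growth.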 The source made the active and inactive calls. Rule as the data show it: active = GI50 up to about 1.1 µM and inactive = higher.

Holding throughout (assay): inhibition of tumour cell growth, NCI panel, 48 h
Experiment [1] concerns MDA-N.
Experiment [2] deals with HCC 2998.
Experiment [3] concerns A549.
Experiment [4] has as its system SF-268.
Experiment [5] concerns NCI-H522.
In experiment [6] the test system is NCI/ADR-RES.
Experiment [7] relates to OVCAR-8.
The subject of experiment [8] is EKVX.
Experiment [9] concerns PC-3.
Experiment [10] has as its system CAKI-1.
The subject of experiment [11] is SK-MEL-5.
Experiment [12] concerns MDA-MB-435.
Experiment [13] concerns OVCAR-5.
Experiment [14] has as its system MCF7.
Experiment [15] has as its system COLO 205.
Experiment [16] has as its system MDA-MB-231.
The test system of experiment [17] is OVCAR-4.
Experiment [18] relates to CCRF-CEM.
Experiment [19] has as its system SR.

On to `C=CCCCCCCCCCOC1C=CC(O)C(CO)O1` (stereo not given), for which the GI50 in experiment [1] was 33.3 µM (inactive); in experiment [2], 41.1 µM (inactive); in [3], 42.4 µM (inactive); in experiment [4], 54.8 µM (inactive); in [5], 33.2 µM (inactive); in experiment [6] it was 43.6 µM (inactive). Moreover, the GI50 is 17.5 µM (inactive) in experiment [7]; 39.2 µM (inactive) in [8]; 26.5 µM (inactive) in experiment [9]; 56 µM (inactive) in [10]; 20.3 µM (inactive) in [11]; 35.5 µM (inactive) in [12]. Also, the GI50 in experiment [13] was 68.4 µM (inactive); in experiment [14] it was 41.4 µM (inactive); in experiment [15], 37.1 µM (inactive); in experiment [16], 75.5 µM (inactive); in [17], 46.6 µM (inactive).
For the molecule `CO/C=C(/C(=O)OC)c1ccccc1Oc1c(F)c(F)c(F)c(F)c1F`, the GI50 in experiment [1] is 41.6 µM (inactive); in experiment [2], 36.7 µM (inactive); in experiment [3], 34.8 µM (inactive); in experiment [4], 50.1 µM (inactive); in experiment [6], 40.7 µM (inactive); in experiment [7] it was 80.5 µM (inactive). For the same molecule, the GI50 in [8] is 32.7 µM (inactive); in experiment [9], 34.8 µM (inactive); in experiment [10] it was 12.8 µM (inactive); in experiment [11] it was 20.9 µM (inactive); in experiment [12] it was 29.7 µM (inactive); in experiment [13] it was > 100 µM (inactive). The GI50 in experiment [18] is 30.1 µM (inactive); in experiment [14], 38.2 µM (inactive); in experiment [15], 17.6 µM (inactive); in [16], 29.5 µM (inactive); in [17] it was 24.4 µM (inactive).
Regarding `CCCn1c(=O)c2ccccc2[n+]2c(-c3ccc([N+](=O)[O-])cc3)csc12`, the GI50 in [1] is 31.3 µM (inactive); in [2] it was 77.4 µM (inactive); in [3], 47 µM (inactive); in experiment [4] it was 41.8 µM (inactive); in experiment [5], 18 µM (inactive); in [6], 7.67 µM (inactive). Besides, the GI50 in experiment [7] was 13.6 µM (inactive); in experiment [8], 42.7 µM (inactive); in [9] it was 18.1 µM (inactive); in experiment [10], 40.9 µM (inactive); in experiment [11] it was 18.6 µM (inactive); in experiment [12], 38.6 µM (inactive). Moreover, the GI50 is 17.8 µM (inactive) in [13]; 27.2 µM (inactive) in experiment [18]; 29.9 µM (inactive) in [14]; 39.9 µM (inactive) in experiment [15]; 33.7 µM (inactive) in experiment [16]; 17.9 µM (inactive) in experiment [17].
As for `COc1ccccc1/N=N/C(=N/NC(=O)c1ccc(C)cc1)c1ccc(N(CCC#N)CCC#N)cc1OC`, the GI50 in experiment [1] was 23.2 µM (inactive); in experiment [2], 34.2 µM (inactive); in [3], 33.5 µM (inactive); in [4] it was 30.5 µM (inactive); in [5], 33.7 µM (inactive); in experiment [6], > 100 µM (inactive). In addition, the GI50 in experiment [7] is 32.5 µM (inactive); in experiment [8] it was 26.4 µM (inactive); in experiment [9], 26.5 µM (inactive); in experiment [10], 52.7 µM (inactive); in [11], 37.8 µM (inactive); in experiment [12], 29.1 µM (inactive). Also, the GI50 was > 100 µM (inactive) in experiment [13]; 18.6 µM (inactive) in experiment [18]; 13.4 µM (inactive) in experiment [14]; 16 µM (inactive) in experiment [15]; 24.9 µM (inactive) in experiment [16]; 31.9 µM (inactive) in experiment [17].
As to `CC1C[C@]2(C)C(=S)Nc3ccccc3[C@@H]2Nc2ccccc21` (stereo not given in full), the GI50 in experiment [1] is 15 µM (inactive); in [2], 22.2 µM (inactive); in experiment [3] it was 19.1 µM (inactive); in experiment [4], 1.11 µM (active); in experiment [6], 18.5 µM (inactive); in experiment [7], 15.9 µM (inactive). The GI50 in experiment [8] is 22.3 µM (inactive); in experiment [9] it was 15.4 µM (inactive); in [10], 25.4 µM (inactive); in [11], 17.7 µM (inactive); in experiment [12], 14.9 µM (inactive); in experiment [13] it was 20.8 µM (inactive). Further, the GI50 in experiment [18] was 17.9 µM (inactive); in experiment [14] it was 13 µM (inactive); in [15] it was 14.2 µM (inactive); in experiment [16], 13.2 µM (inactive); in experiment [19], > 100 µM (inactive); in experiment [17], 17.8 µM (inactive).
Regarding `COC(=O)[C@@H]1CN(C(=O)CCc2ccccc2)C(=O)N1C(=O)OCc1ccccc1`, the GI50 in experiment [1] is > 100 µM (inactive); in experiment [2], > 100 µM (inactive); in experiment [3], > 100 µM (inactive); in [4] it was 40 µM (inactive); in experiment [5] it was > 100 µM (inactive); in [6], > 100 µM (inactive). For the same molecule, the GI50 in [7], in experiment [8], in experiment [10], in experiment [11], in [12] and in experiment [13] was > 100 µM (inactive) throughout. Also, the GI50 in experiment [18], in experiment [14], in [15], in experiment [16], in experiment [19] and in experiment [17] was > 100 µM (inactive) each time.
In the case of `COc1ccc(/C=C2/SC(c3ccc(Cl)cc3)N(NC(=O)CCCCCCCCC(=O)NN3C(=O)/C(=C\c4ccc(OC)c(OC)c4)SC3c3ccc(Cl)cc3)C2=O)cc1OC` (stereo not given), the GI50 in [1] is 36.6 µM (inactive); in experiment [2], > 100 µM (inactive); in experiment [3] it was 64.3 µM (inactive); in [4], 50 µM (inactive); in experiment [6] it was > 100 µM (inactive); in experiment [7], 52.8 µM (inactive). Besides, the GI50 in [8] is 23.6 µM (inactive); in [9], 54.1 µM (inactive); in [10], 47.1 µM (inactive); in experiment [11], 50.1 µM (inactive); in experiment [12], 42 µM (inactive); in experiment [13], 87.1 µM (inactive). The GI50 in experiment [14], in [15], in experiment [16], in experiment [19] and in experiment [17] was > 100 µM (inactive) each time.
With `COC1=CC(=O)c2c(O)ccc(O)c2C1=O`, the GI50 in experiment [1] is 0.7 µM (active); in [2] it was 4.49 µM (inactive); in experiment [3], 1.98 µM (inactive); in [4] it was 7.26 µM (inactive); in experiment [5], 11.5 µM (inactive); in [6] it was 19.8 µM (inactive). Moreover, the GI50 is 21.4 µM (inactive) in experiment [7]; 20.2 µM (inactive) in experiment [8]; 18.5 µM (inactive) in experiment [9]; 0.851 µM (active) in experiment [11]; 0.659 µM (active) in [12]; 18.4 µM (inactive) in experiment [13]. Also, the GI50 is 8.57 µM (inactive) in [18]; 2.82 µM (inactive) in [14]; 1.5 µM (inactive) in experiment [15]; 3.12 µM (inactive) in experiment [16]; 13.6 µM (inactive) in experiment [17].
Regarding `CC1(C)[C@@H](Cn2cnc3c(O)nc(N)nc32)CC[C@@]1(C)CO`, the GI50 in [1], in experiment [2], in experiment [3], in experiment [4], in experiment [6] and in experiment [8] was > 100 µM (inactive) throughout. The GI50 in experiment [9], in experiment [10], in [11], in [12], in experiment [13] and in experiment [18] was > 100 µM (inactive) in each case. Moreover, the GI50 in experiment [14], in [16] and in experiment [17] was > 100 µM (inactive) in each case.
For the molecule `CC(=O)OC(OC(C)=O)c1ccc2ccc3cccc4ccc1c2c34`, the GI50 was 15.2 µM (inactive) in experiment [1]; 11.3 µM (inactive) in experiment [2]; > 100 µM (inactive) in [3]; 28 µM (inactive) in experiment [4]; 31.3 µM (inactive) in [6]; 12.8 µM (inactive) in experiment [7]. Further, the GI50 in experiment [8] is 27.4 µM (inactive); in [9], 28.6 µM (inactive); in experiment [10] it was 9.04 µM (inactive); in [11], 18.2 µM (inactive); in [12], 18.9 µM (inactive); in experiment [13], 20 µM (inactive). For the same molecule, the GI50 in experiment [18] was 42.6 µM (inactive); in experiment [14], 23.6 µM (inactive); in [15], 25.1 µM (inactive); in experiment [16], 10.1 µM (inactive); in experiment [19], 21 µM (inactive).
On to `CC1=C/C(O)CC(=O)Cc2nc(co2)C(=O)N2CCC=C2C(=O)OC(C(C)C)C(C)/C=C\C(=O)NC/C=C\1` (stereo not given), for which the GI50 in [1] is 14.2 µM (inactive); in [2] it was 19.1 µM (inactive); in [3], 29.9 µM (inactive); in [4], 16 µM (inactive); in experiment [5], 0.176 µM (active); in experiment [7], 15.3 µM (inactive). Besides, the GI50 in experiment [8] is 18.8 µM (inactive); in experiment [9], 27.1 µM (inactive); in experiment [10], 22 µM (inactive); in experiment [11] it was 33.4 µM (inactive); in [12] it was 24.8 µM (inactive); in experiment [13], 18.8 µM (inactive). The GI50 in experiment [18] was 21.6 µM (inactive); in experiment [14], 19.1 µM (inactive); in experiment [15], 16.3 µM (inactive); in experiment [16], 23.9 µM (inactive); in [19] it was 15 µM (inactive); in [17], 57.9 µM (inactive).
